Source: PubChem BioAssay (NCI)
Values joined by “and” are separate entries in the source; they are usually repeats but may differ in a detail not shown here. Identical values can stand only once.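 In this assay, cells in 96-well plates receive the compound at five concentrations for 48 hours. Endpoints are linearly interpolated between the surrounding concentrations. Abbreviation: GI50, concentration required for 50% inhibition of growth. The concentration for full growth arrest is given as TGI.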

Key:
Assay in all cases: NCI tumour cell line growth inhibition, 48 h
NCI-H460 lung = system: NCI-H460 lung
MALME-3M melanoma = system: MALME-3M melanoma
SF-539 CNS = system: SF-539 CNS
MDA-MB-435 = system: MDA-MB-435
LOX IMVI melanoma = system: LOX IMVI melanoma
KM12 colon = system: KM12 colon
UACC-62 melanoma = system: UACC-62 melanoma
SW-620 colon = system: SW-620 colon
HL-60(TB) leukemia = system: HL-60(TB) leukemia
HOP-92 NSCLC = system: HOP-92 NSCLC
SR leukemia = system: SR leukemia
SK-MEL-2 melanoma = system: SK-MEL-2 melanoma
UO-31 renal = system: UO-31 renal
IGROV1 ovarian = system: IGROV1 ovarian
HCT-15 colon = system: HCT-15 colon
HOP-62 NSCLC = system: HOP-62 NSCLC
COLO 205 colon = system: COLO 205 colon
BT-549 breast = system: BT-549 breast
DU-145 prostate = system: DU-145 prostate
NCI-H522 lung = system: NCI-H522 lung
SK-MEL-5 melanoma = system: SK-MEL-5 melanoma
RXF 393 renal = system: RXF 393 renal
HCC-2998 colon = system: HCC-2998 colon
HT29 colon = system: HT29 colon
T-47D breast = system: T-47D breast
RPMI-8226 leukemia = system: RPMI-8226 leukemia
MOLT-4 leukemia = system: MOLT-4 leukemia
SF-295 CNS = system: SF-295 CNS
EKVX NSCLC = system: EKVX NSCLC
ACHN renal = system: ACHN renal
SK-MEL-28 melanoma = system: SK-MEL-28 melanoma
NCI-H23 lung = system: NCI-H23 lung
NCI/ADR-RES ovarian = system: NCI/ADR-RES ovarian
A549 NSCLC = system: A549 NSCLC
MCF7 breast = system: MCF7 breast
OVCAR-8 ovarian = system: OVCAR-8 ovarian
MDA-MB-231 breast = system: MDA-MB-231 breast
SNB-75 CNS = system: SNB-75 CNS
CAKI-1 renal = system: CAKI-1 renal
OVCAR-4 ovarian = system: OVCAR-4 ovarian
M14 melanoma = system: M14 melanoma
786-0 renal = system: 786-0 renal
CCRF-CEM leukemia = system: CCRF-CEM leukemia
K-562 leukemia = system: K-562 leukemia
UACC-257 melanoma = system: UACC-257 melanoma
SF-268 CNS = system: SF-268 CNS
SN12C renal = system: SN12C renal
OVCAR-5 ovarian = system: OVCAR-5 ovarian
HS 578T breast = system: HS 578T breast
U251 CNS = system: U251 CNS
A498 renal = system: A498 renal
PC-3 prostate = system: PC-3 prostate
HCT-116 colon = system: HCT-116 colon
OVCAR-3 ovarian = system: OVCAR-3 ovarian
NCI-H226 lung = system: NCI-H226 lung
SK-OV-3 ovarian = system: SK-OV-3 ovarian
SNB-19 CNS = system: SNB-19 CNS
TK-10 renal = system: TK-10 renal

Cn1ncc(Cl)c1-c1cc(C(=O)N[C@H](CN)Cc2ccc(F)c(F)c2)oc1Cl
GI50 (NCI-H460 lung): 152 nM and 163 nM | TGI (NCI-H460 lung): 13000 nM and > 10000 nM | GI50 (MALME-3M melanoma): 360 nM and 687 nM | TGI (MALME-3M melanoma): 1610 nM and 2590 nM | GI50 (SF-539 CNS): 161 nM and 121 nM | TGI (SF-539 CNS): 3220 nM and 2140 nM | GI50 (MDA-MB-435): 1230 nM and 889 nM | TGI (MDA-MB-435): 10400 nM and > 6540 nM | GI50 (LOX IMVI melanoma): 2650 nM and 1440 nM | TGI (LOX IMVI melanoma): 19900 nM and 4190 nM | GI50 (KM12 colon): 590 nM and 255 nM | TGI (KM12 colon): 6730 nM and 4430 nM | GI50 (UACC-62 melanoma): 625 nM and 494 nM | TGI (UACC-62 melanoma): 3040 nM and 2650 nM | GI50 (SW-620 colon): 7820 nM and 4100 nM | TGI (SW-620 colon): 21800 nM and > 10000 nM | GI50 (HL-60(TB) leukemia): 2900 nM and 2050 nM | TGI (HL-60(TB) leukemia): 9620 nM and 6760 nM | GI50 (HOP-92 NSCLC): 139 nM and 191 nM | TGI (HOP-92 NSCLC): 2420 nM and 1420 nM | TGI (SR leukemia): 2740 nM and 4360 nM | GI50 (SK-MEL-2 melanoma): 2440 nM and 1770 nM | TGI (SK-MEL-2 melanoma): 6820 nM and 4720 nM | GI50 (UO-31 renal): 970 nM and 360 nM | TGI (UO-31 renal): 11700 nM and > 7680 nM | GI50 (IGROV1 ovarian): 26.8 nM and 20.1 nM | TGI (IGROV1 ovarian): 3620 nM and 1430 nM | GI50 (HCT-15 colon): 1160 nM and 662 nM | TGI (HCT-15 colon): 13800 nM and > 10000 nM | GI50 (HOP-62 NSCLC): 2140 nM and 2700 nM | TGI (HOP-62 NSCLC): 14000 nM and > 10000 nM | GI50 (COLO 205 colon): 593 nM and 575 nM | TGI (COLO 205 colon): 5840 nM and 3220 nM | GI50 (BT-549 breast): 511 nM and 412 nM | TGI (BT-549 breast): 3710 nM and 3020 nM | GI50 (DU-145 prostate): 4250 nM and 2480 nM | TGI (DU-145 prostate): 17800 nM and > 10000 nM | GI50 (NCI-H522 lung): 4820 nM and 2040 nM | TGI (NCI-H522 lung): 16000 nM and > 8820 nM | GI50 (SK-MEL-5 melanoma): 2150 nM and 1480 nM | TGI (SK-MEL-5 melanoma): 5800 nM and 2870 nM | GI50 (RXF 393 renal): 36.1 nM and 33.8 nM | TGI (RXF 393 renal): 534 nM and 705 nM | TGI (HCC-2998 colon): 6230 nM and 2080 nM | GI50 (HT29 colon): 1150 nM and 346 nM | TGI (HT29 colon): 15000 nM and > 10000 nM | GI50 (T-47D breast): 19.3 nM and 24.5 nM | GI50 (RPMI-8226 leukemia): 2050 nM and 2620 nM | TGI (RPMI-8226 leukemia): 7960 nM and > 7980 nM | GI50 (MOLT-4 leukemia): 93.1 nM and 100 nM | TGI (MOLT-4 leukemia): 2250 nM and > 6730 nM | GI50 (SF-295 CNS): 145 nM and 111 nM | TGI (SF-295 CNS): 5040 nM and 3270 nM | GI50 (EKVX NSCLC): 2770 nM | TGI (EKVX NSCLC): > 10000 nM | GI50 (ACHN renal): 2230 nM and 1860 nM | TGI (ACHN renal): 14200 nM and > 10000 nM | GI50 (SK-MEL-28 melanoma): 1020 nM and 935 nM | TGI (SK-MEL-28 melanoma): 4780 nM and 3200 nM | GI50 (NCI-H23 lung): 5170 nM and 2440 nM | TGI (NCI-H23 lung): 19700 nM and > 10000 nM | GI50 (NCI/ADR-RES ovarian): 10200 nM and 2940 nM | TGI (NCI/ADR-RES ovarian): 24500 nM and > 10000 nM | GI50 (A549 NSCLC): 1570 nM and 1200 nM | TGI (A549 NSCLC): 15000 nM and > 10000 nM | GI50 (MCF7 breast): 257 nM and 139 nM | TGI (MCF7 breast): 9660 nM and 2890 nM | GI50 (OVCAR-8 ovarian): 9130 nM and 4990 nM | TGI (OVCAR-8 ovarian): 23700 nM and > 10000 nM | GI50 (MDA-MB-231 breast): 2590 nM and 1720 nM | TGI (MDA-MB-231 breast): 9870 nM and 5760 nM | GI50 (SNB-75 CNS): 50.8 nM and 27 nM | TGI (SNB-75 CNS): 1400 nM and 846 nM | GI50 (CAKI-1 renal): 1900 nM and 870 nM | TGI (CAKI-1 renal): 14200 nM and > 5200 nM | GI50 (OVCAR-4 ovarian): 4060 nM and 5400 nM | TGI (OVCAR-4 ovarian): 17200 nM and > 10000 nM | GI50 (M14 melanoma): 1590 nM and 1490 nM | TGI (M14 melanoma): 5700 nM and 3710 nM | GI50 (786-0 renal): 37.1 nM and 29.5 nM | TGI (786-0 renal): 3790 nM and 2100 nM | GI50 (CCRF-CEM leukemia): 197 nM and 196 nM | TGI (CCRF-CEM leukemia): 11800 nM and > 10000 nM | GI50 (K-562 leukemia): 2340 nM and 3010 nM | TGI (K-562 leukemia): 7350 nM and > 8680 nM | GI50 (UACC-257 melanoma): 1640 nM and 1210 nM | TGI (UACC-257 melanoma): 7210 nM and 3160 nM | GI50 (SF-268 CNS): 3360 nM and 2080 nM | TGI (SF-268 CNS): 17100 nM and > 10000 nM | GI50 (SN12C renal): 3480 nM and 1690 nM | TGI (SN12C renal): 17400 nM and > 10000 nM | GI50 (OVCAR-5 ovarian): 426 nM and 2450 nM | TGI (OVCAR-5 ovarian): 9120 nM and > 10000 nM | GI50 (HS 578T breast): 90.5 nM and 126 nM | TGI (HS 578T breast): 2080 nM and 2860 nM | GI50 (U251 CNS): 289 nM and 171 nM | TGI (U251 CNS): 13500 nM and > 9510 nM | GI50 (A498 renal): 30.3 nM and 40.4 nM | TGI (A498 renal): 300 nM and 472 nM | GI50 (PC-3 prostate): 263 nM and 133 nM | TGI (PC-3 prostate): 9070 nM and > 6730 nM | GI50 (HCT-116 colon): 1670 nM and 1760 nM | TGI (HCT-116 colon): 8090 nM and > 6830 nM | GI50 (OVCAR-3 ovarian): 1970 nM and 1600 nM | TGI (OVCAR-3 ovarian): 15000 nM and > 10000 nM | GI50 (NCI-H226 lung): 5910 nM and 2290 nM | TGI (NCI-H226 lung): 24700 nM and > 10000 nM | GI50 (SK-OV-3 ovarian): 232 nM and 259 nM | TGI (SK-OV-3 ovarian): 3750 nM and 5040 nM | GI50 (SNB-19 CNS): 486 nM and 252 nM | TGI (SNB-19 CNS): 12900 nM and > 10000 nM | GI50 (TK-10 renal): 961 nM and 203 nM | TGI (TK-10 renal): 8740 nM and 3920 nM
